In patent publication US4999359A, “Heterocyclic ethylene diamine compounds and their pharmaceutical compositions and methods” (Dr. Lo Zambeletti S.p.A., priority 1988, dated 1991):
Counter-ions that a name gives are not always drawn. Like-named read-outs stand apart in the source and are kept apart here.

How the values were obtained:
mice (tail-flick) = experiment: animal or person; format: in vivo; settings: Mus musculus, sc, 0.5 h, read-out: ANALGESIA TAIL-FLICK ED50 (a)
μ opioid receptor = μ opioid receptor (Cavia porcellus, UniProt A0ACM8Q262); experiment: Binding to μ sites (3H-DAGO), receptor affinity study; set-up: species or system guinea pig
Chain of μ opioid receptor (A0ACM8Q262 1-400): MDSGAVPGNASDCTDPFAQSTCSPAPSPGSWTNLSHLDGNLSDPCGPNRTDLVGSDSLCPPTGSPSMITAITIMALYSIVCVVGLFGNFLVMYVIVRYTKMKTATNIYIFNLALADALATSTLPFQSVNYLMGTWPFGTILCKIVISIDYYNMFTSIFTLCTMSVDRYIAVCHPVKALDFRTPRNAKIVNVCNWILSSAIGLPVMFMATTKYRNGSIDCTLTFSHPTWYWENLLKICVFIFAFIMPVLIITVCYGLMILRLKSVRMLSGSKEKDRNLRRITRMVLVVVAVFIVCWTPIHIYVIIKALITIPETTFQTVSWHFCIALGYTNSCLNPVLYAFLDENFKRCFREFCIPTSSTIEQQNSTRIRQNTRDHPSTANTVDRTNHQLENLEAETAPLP

[1] = tested on: mice (p-phenylquinone-induced abdominal writhing); experiment: P-phenylquinone-induced abdominal writhing test in mice; format: in vivo; settings: Mus musculus, sc, p-phenylquinone i.p. 2 mg/Kg after 20 min pretreatment, calculated for the free base, read-out: ANALGESIA WRITHING ED50 (a)
Procedure: P-phenylquinone-induced abdominal writhing test in mice
The methodology employed is based on that described by Sigmund et al, Proc. Soc. Exptl. Biol. 95, 729/1957, modified by Milne and Twomey, Agents and Actions, 10, 31/1980.
Male Charles River mice (Swiss Strain), 25-36 g body weight, are used. Animals are allowed food and water ad libitum and are randomized into groups of 10 prior to experimentation. Test compounds are dissolved in either distilled water or distilled water plus 0.1M AMS, and administered by the subcutaneous route in a final volume of 10 ml/Kg. Control animals receive 10 ml/Kg of the appropriate vehicle alone. Following a pretreatment period of 20 min., mice are injected intraperitoneally with p-phenylquinone, 2 mg/Kg at 37° C. in a final volume of […]. Next, the mice are placed, in a groups of 3, in a compartmented perspex box maintained at room temperature and are observed for a period of 8 min. During this period the number of abdominal writhing responses per animal are recorded where writhing consists of an intermittent contraction of the abdomen associated with hind leg extension.
The degree of antinociceptive protection afforded by the test compound is determined as the mean number of writhing responses observed in the treated group (T) expressed as a percentage of the mean number of writhing responses in the control group (C) according to the following formula:
[1-(T/C)]×100%=% graded protection.

kappa opioid receptors = target: T1, kappa opioid receptors (Cavia porcellus, UniProt P41144); experiment: biochemical; format: binding, guinea pig
T1 construct: fresh guinea pig brain homogenate; from tissue; host or cells: guinea pig whole brain without cerebellum, homogenate
T1 sequence (P41144 whole entry): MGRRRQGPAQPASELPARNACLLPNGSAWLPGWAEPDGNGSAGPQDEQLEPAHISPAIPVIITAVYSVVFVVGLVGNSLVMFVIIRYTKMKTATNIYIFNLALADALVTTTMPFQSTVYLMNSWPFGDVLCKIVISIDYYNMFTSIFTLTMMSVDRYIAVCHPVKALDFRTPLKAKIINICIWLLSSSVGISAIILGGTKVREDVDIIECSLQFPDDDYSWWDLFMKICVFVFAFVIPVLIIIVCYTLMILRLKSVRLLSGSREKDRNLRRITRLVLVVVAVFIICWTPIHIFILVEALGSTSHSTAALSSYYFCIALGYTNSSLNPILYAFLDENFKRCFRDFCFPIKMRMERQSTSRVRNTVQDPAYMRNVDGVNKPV

[2] = read-out: OPIATE RECEPTORS BINDING ki MU; guinea pig brain homogenate; 3H-DAGO; 40 min, 25° C.
[3] = read-out: OPIATE RECEPTORS BINDING ki MU

Row | Compound | ED50 (mice (tail-flick)) [mg/kg] | Ki (μ opioid receptor; [2]) [µM] | ED50 [1] [mg/kg] | Ki (kappa opioid receptors) [µM] | Ki (μ opioid receptor; guinea pig brain homogenate; 3H-DAGO; 40 min, 25° C.; read-out: OPIATE RECEPTORS BINDING ki MU) [µM] | Ki (μ opioid receptor; [3]) [µM]
1 | Cl.O=C(Cc1ccc(Cl)c(Cl)c1)N1CCc2sccc2C1CN1CCCCC1 (stereo not shown) [Example 5, 4-(piperidin-1-yl)methyl-5-(3,4-dichlorophenyl)acetyl-4,5,6,7-tetrahydrothieno[3,2-c]pyridine hydrochloride] | 0.09 | 0.781 | 0.022 | 0.00129 |  | 
2 | CN(C)CC1c2ccsc2CCN1C(=O)Cc1ccc(Cl)c(Cl)c1.Cl (stereo not shown) [Example 6, 4-dimethylaminomethyl-5-(3,4-dichlorophenyl)acetyl-4,5,6,7-tetrahydrothieno[3,2-c]pyridine hydrochloride] | 0.042 | 0.607 |  | 0.00175 |  | 
3 | Cl.O=C(Cc1ccc(C(F)(F)F)cc1)N1CCc2sccc2C1CN1CCCC1 (stereo not shown) [Example 4, 4-(pyrrolidin-1-yl)methyl-5-(4-trifluoromethylphenyl)acetyl-4,5,6,7-tetrahydrothieno[3,2-c]pyridine hydrochloride] | 0.018 | 0.0392 | 0.004 | 0.00178 |  | 
4 | O=C(Cc1ccc(Cl)c(Cl)c1)N1CCc2[nH]cnc2C1CN1CCCC1 (stereo not shown) [Example 23, 4-(pyrrolidin-1-yl)methyl-5-(3,4-dichlorophenyl)acetyl-4,5,6,7-tetrahydroimidazo[4,5-c]pyridine] | > 50 |  |  |  | > 1 | 
5 | O=C(Cc1ccc2c(c1)CCCC2)N1CCc2sccc2C1CN1CCCCC1 (stereo not shown) [Example 19, 4-(piperidin-1-yl)methyl-5-(5,6,7,8-tetrahydronapht-2-yl) acetyl-4,5,6,7-tetrahydrothieno[3,2-c]pyridine hydrochloride hemihydrate] | 0.22 |  | 0.092 |  |  | 
6 | CN(C)CC1c2ccsc2CCN1C(=O)Cc1ccc(C(F)(F)F)cc1 (stereo not shown) [Example 7, 4-dimethylaminomethyl-5-(4-trifluoromethylphenyl)acetyl-4,5,6,7-tetrahydrothieno[3,2-c]pyridine 1.5 hydrochloride 1/3 hydrate] | 0.093 |  |  | 0.00346 |  | 0.513
7 | CC(C1c2ccsc2CCN1C(=O)Cc1ccc(Cl)c(Cl)c1)N(C)C.Cl (single isomer, unassigned) [Example 18, 4-[1-(dimethylamino)ethyl]-5-(3,4-dichlorophenyl)acetyl-4,5,6,7-tetrahydrothieno[3,2-c]pyridine hydrochloride] | 0.824 |  | 0.204 |  |  | 
8 | O=C(Cc1ccc(Cl)c(Cl)c1)N1CCc2[nH]c3ccccc3c2C1CN1CCCC1 (stereo not shown) [Example 15, 1-(pyrrolidin-1-yl)methyl-2-(3,4-dichlorophenyl)acetyl-1,2,3,4-tetrahydro-5H-pyrido[4,3-b]indole hydrochloride hemihydrate] | > 10 |  | > 10 |  |  | 
9 | O=C(Cc1ccc(C(F)(F)F)cc1)N1CCc2sccc2C1CN1CCCCC1 (stereo not shown) [Example 12, 4-(piperidin-1-yl)methyl-5-(4-trifluoromethylphenyl)acetyl-4,5,6,7-tetrahydrothieno[3,2-c]pyridine] | 0.09 | 0.793 | 0.034 |  |  | 
10 | Cl.O=C(Cc1ccc2c(c1)CCC2)N1CCc2sccc2C1CN1CCCC1 (stereo not shown) [Example 22, 4-(pyrrolidin-1-yl)methyl-5-(indan-5-yl)acetyl-4,5,6,7-tetrahydrothieno[3,2-c]pyridine hydrochloride] | 0.146 | 0.104 | 0.014 |  |  | 
11 | O=C(Cc1ccc(C(F)(F)F)cc1)N1CCc2sccc2C1CN1CCCCC1 (single isomer, unassigned) [Example 13, (-)-4-(piperidin-1-yl)methyl-5-(4-trifluoromethylphenyl)acetyl-4,5,6,7-tetrahydrothieno[3,2-c]pyridine L(+) tartrate monohydrate] | 0.054 | 0.468 | 0.01 |  |  | 
12 | O=C(Cc1ccc2c(c1)CCC2)N1CCc2sccc2C1CN1CCCCC1 (stereo not shown) [Example 20, 4-(piperidin-1-yl)methyl-5-(indan-5-yl)acetyl-4,5,6,7-tetrahydrothieno[3,2-c]pyridine hydrochloride 1/3 hydrate] | 0.412 |  | 0.092 |  |  | 
13 | O=C(Cc1ccc(Cl)c(Cl)c1)N1CCc2sccc2C1CN1CCCCC1 (single isomer, unassigned) [Example 10, (-)-4-(piperidin-1-yl)methyl-5-(3,4-dichlorophenyl)acetyl-4,5,6,7-tetrahydrothieno[3,2-c]pyridine L(+) tartrate hemihydrate] | 0.041 |  | 0.01 |  |  | 0.5
14 | O=C(Cc1ccc2c(c1)CCCC2)N1CCc2sccc2C1CN1CCCC1 (stereo not shown) [Example 21, 4-(pyrrolidin-1-yl)methyl-5-(5,6,7,8-tetrahydronapht-2-yl) acetyl-4,5,6,7-tetrahydrothieno[3,2-c]pyridine hydrochloride] | 0.236 | 0.056 | 0.022 |  |  | 
15 | O=C(Cc1ccc(Cl)c(Cl)c1)N1CCc2[nH]c3ccccc3c2C1CN1CCCCC1 (stereo not shown) [Example 16, 1-(piperidin-1-yl)methyl-2-(3,4-dichlorophenyl)acetyl-1,2,3,4-tetrahydro-5H-pyrido[4,3-b]indole] | > 10 |  | > 10 |  |  | 
16 | Cl.O.O=C(Cc1ccc(Cl)c(Cl)c1)N1CCc2sccc2C1CN1CCCC1 (stereo not shown) [Example 3, 4-(pyrrolidin-1-yl)methyl-5-(3,4-dichlorophenyl)acetyl-4,5,6,7-tetrahydrothieno[3,2-c]pyridine hydrochloride monohydrate] | 0.019 | 0.085 | 0.004 | 0.00119 |  | 
17 | O=C(Cc1ccc(Cl)c(Cl)c1)N1CCc2sccc2C1CN1CCCC1 (single isomer, unassigned) [Example 9, (-)-4-(pyrrolidin-1-yl)methyl-5-(3,4-dichlorophenyl)acetyl-4,5,6,7-tetrahydrothieno[3,2-c]pyridine D(-) tartrate hemihydrate] | 0.007 | 0.0472 | 0.003 | 0.00107 |  | 
